Assay results reported in patent US11419335B2, “N-arylated analogues and uses thereof” (University of Florida Research Foundation, Incorporated, priority 2016, dated 2022).
Where two headings read alike, the source gives them in different places. Marks after values point to notes of the source that are not given here.

What was measured:
[1] = system: SA-156 (clinical isolate); assay: MIC broth microdilution, SA-156; format: cell-based, Staphylococcus aureus
Method: (§1) The minimum inhibitory concentration (MIC) for each tested compound was determined by the broth microdilution method as recommended by the Clinical and Laboratory Standards Institute (CLSI). In a 96-well plate, eleven two-fold serial dilutions of each compound were made in a final volume of 100 μL Luria Broth. Each well was inoculated with ˜10^5 bacterial cells at the initial time of incubation, prepared from a fresh log phase culture (OD600 of 0.5 to 1.0 depending on bacterial strain). […] (MIC values were supported by spectrophotometric readings at OD600). DMSO served as our vehicle and negative control in each microdilution MIC assay. DMSO was serially diluted with a top concentration of 1% v/v.
(§2) Each well was inoculated with ˜10^5 bacterial cells at the initial time of incubation, prepared from a fresh log phase culture (OD600 of 0.5 to 1.0 depending on bacterial strain). […] The concentration range tested for each compound during this study was 0.10 to 100 μM. DMSO served as our vehicle and negative control in each microdilution MIC assay. DMSO was serially diluted with a top concentration of 1% v/v. All MIC values were obtained from a minimum of three independent experiments.

[2] = system: vancomycin-resistant Enterococcus faecium (VRE strain ATCC 700221); assay: MIC broth microdilution, VRE 700221; format: cell-based; conditions: for MIC E. faecium VRE 700221: Table 1A; for MIC VRE 700221: Table 4
Method: (§3) The minimum inhibitory concentration (MIC) for each tested compound was determined by the broth microdilution method as recommended by the Clinical and Laboratory Standards Institute (CLSI). In a 96-well plate, eleven two-fold serial dilutions of each compound were made in a final volume of 100 μL Luria Broth. Each well was inoculated with ˜10^5 bacterial cells at the initial time of incubation, prepared from a fresh log phase culture (OD600 of 0.5 to 1.0 depending on bacterial strain). The MIC was defined as the lowest concentration of compound that prevented bacterial growth after incubating 16 to 18 hours at 37° C. (MIC values were supported by spectrophotometric readings at OD600). DMSO served as our vehicle and negative control in each microdilution MIC assay. DMSO was serially diluted with a top concentration of 1% v/v.
as §3, with “for each compound was” for “for each tested compound was”, “Standards Institute (CLSI).^6 In a” for “Standards Institute (CLSI). In a”, “concentration of test compound that” for “concentration of compound that”, “37° C. The concentration range tested for each compound during this study was 0.10 to 100 μM. DMSO served” for “37° C. (MIC values were supported by spectrophotometric readings at OD600). DMSO served”, “1% v/v. All MIC values were obtained from a minimum of three independent experiments.” for “1% v/v.”

[3] = system: MRSA-2 biofilms; assay: Calgary Biofilm Device assay (MBC/MBEC), MRSA-2; format: cell-based, Staphylococcus aureus; conditions: Table 2A; CBD assay
Method: The lid of the Calgary device was then removed, washed and transferred to another 96-well plate containing 2-fold serial dilutions of the test compounds (the “challenge plate”). The total volume of media with compound in each well in the challenge plate is 150 μL. […] The lid was then removed from the challenge plate and MBC/MBEC values were determined using different final assays. […] The MBC values were determined as the concentration giving a lack of visible bacterial growth (i.e., turbidity). […] In select experiments, pegs from the Calgary device were removed from lead biofilm eradicators after final incubation, sonicated for 30 minutes in PBS and plated out to determine biofilm cell killing of lead biofilm-eradicating agents (i.e., colony forming unit per milliliter, CFU/mL).
Using a Calgary Biofilm Device, bacterial biofilms are established on pegs suspended to the bottom of a 96-well plate lid. Following biofilm establishment on lid pegs, lids are then transferred to new 96-well plates containing serial dilutions of test compound and allowed to incubate. After compound treatment, 96-well plate lids with pegs are once again transferred to 96-well plates containing fresh media. During this final phase of the assay, viable biofilms will grow and disperse planktonic cells into the media where they will grow and give a turbid well result. Conversely, wells that have no growth are a result of pegs that had eradicated bacterial biofilms. The lowest concentration at which no turbidity is observed is the minimum biofilm eradication concentration (MBEC). Using the Calgary Biofilm Device, both minimum biofilm eradication concentrations and minimum bactericidal concentrations (MBC) for planktonic bacterial can be determined using one assay from a single bacterial culture (FIG. 3A).

[4] = system: SA-147 (clinical isolate); assay: MIC broth microdilution, SA-147; format: cell-based, Staphylococcus aureus
Method: as §1, §2

[5] = system: human red blood cells (hRBC); assay: Hemolysis of red blood cells; format: cell-based
Method: The washing was repeated three times with the buffer. In a 96-well plate, test compounds were added to the buffer from DMSO stocks. […] The plate was then incubated for 1 hour at 37° C. After incubation, the plate was centrifuged for 5 minutes at 3,500 rpm. Then 80 μL of the supernatant was transferred to another 96-well plate and the optical density (OD) was read at 405 nm. DMSO served as our negative control (0% hemolysis) while Triton X served as our positive control (100% hemolysis). […] All reported data correspond to three independent experiments. Ten-point dose-response curves were generated in 96-well plates to determine 50% hemolysis (HC50 values) of red blood cells.
The washing was repeated three times with the buffer. In 96-well plate, the test compounds were added to the buffer. Then 50 μL of 2% of hRBCs in the buffer were added to the test plate to make the final concentrations ranging from 0.2 to 200 μM of each test compound. The plate was then incubated for 1 hour at 37° C. After incubation, the plate was centrifuged for 5 minutes at 3500 rpm and then 80 μL of the supernatant was transferred to another 96-well plate and the Optical Density (OD) was read at 405 nm. DMSO served as our negative control (0% haemolysis) and Triton X served as our positive control (100% haemolysis). The HC50 (concentration of test compound required to lyse red blood cells by 50%) was calculated by plotting the dose-response curve (not shown) with Graphpad Prism 6.0. All data were obtained from three independent haemolysis experiments.

[6] = system: methicillin-resistant Staphylococcus epidermidis (MRSE strain ATCC 35984); assay: MIC broth microdilution, MRSE 35984; format: cell-based; conditions: for MIC S. epidermidis MRSE 35984: Table 1A; for MIC MRSE 35984: Table 4
Method: as §3
as §3, with “for each compound was” for “for each tested compound was”, “Standards Institute (CLSI).^6 In a” for “Standards Institute (CLSI). In a”, “concentration of test compound that” for “concentration of compound that”, “37° C. The concentration range tested for each compound during this study was 0.10 to 100 μM. DMSO served” for “37° C. (MIC values were supported by spectrophotometric readings at OD600). DMSO served”, “1% v/v. All MIC values were obtained from a minimum of three independent experiments.” for “1% v/v.”

[7] = system: MRSA BAA-44; assay: MIC broth microdilution, MRSA BAA-44; format: cell-based, Staphylococcus aureus
Method: as §1, §2

[8] = system: MRSA-1 (clinical isolate); assay: MIC broth microdilution, MRSA-1; format: cell-based, Staphylococcus aureus
Method: as §1, §2

[9] = system: methicillin-resistant Staphylococcus aureus MRSA-2 (clinical isolate); assay: MIC broth microdilution, MRSA-2; format: cell-based; conditions: for MIC: read-out: MIC MRSA-2
Method: as §3
as §3, with “for each compound was” for “for each tested compound was”, “Standards Institute (CLSI).^6 In a” for “Standards Institute (CLSI). In a”, “concentration of test compound that” for “concentration of compound that”, “37° C. The concentration range tested for each compound during this study was 0.10 to 100 μM. DMSO served” for “37° C. (MIC values were supported by spectrophotometric readings at OD600). DMSO served”, “1% v/v. All MIC values were obtained from a minimum of three independent experiments.” for “1% v/v.”

[10] = system: Pseudomonas aeruginosa (PAO1); assay: MIC broth microdilution, PAO1; format: cell-based
Method: as §3
as §3, with “for each compound was” for “for each tested compound was”, “Standards Institute (CLSI).^6 In a” for “Standards Institute (CLSI). In a”, “concentration of test compound that” for “concentration of compound that”, “37° C. The concentration range tested for each compound during this study was 0.10 to 100 μM. DMSO served” for “37° C. (MIC values were supported by spectrophotometric readings at OD600). DMSO served”, “1% v/v. All MIC values were obtained from a minimum of three independent experiments.” for “1% v/v.”

[11] = system: MRSA BAA-1707; assay: MIC broth microdilution, MRSA BAA-1707; format: cell-based, Staphylococcus aureus; conditions: for MIC: read-out: MIC MRSA BAA-1707; for MIC MRSA 1707: Table 4
Method: as §1, §2

[12] = system: SA-138 (clinical isolate); assay: MIC broth microdilution, SA-138; format: cell-based, Staphylococcus aureus
Method: as §1, §2

[13] = system: SA-129 (clinical isolate); assay: MIC broth microdilution, SA-129; format: cell-based, Staphylococcus aureus
Method: as §1, §2

[14] = system: methicillin-sensitive Staphylococcus aureus ATCC 29213; assay: MIC broth microdilution, S. aureus 29213; format: cell-based
Method: as §1, §2

[15] = system: Acinetobacter baumannii (ATCC 1794); assay: MIC broth microdilution, A. baumannii 1794; format: cell-based; conditions: for MIC A. baumannii 1794: Table 1A, in µM; for MIC A. bau. 1794: Table 4
Method: as §3
as §3, with “for each compound was” for “for each tested compound was”, “Standards Institute (CLSI).^6 In a” for “Standards Institute (CLSI). In a”, “concentration of test compound that” for “concentration of compound that”, “37° C. The concentration range tested for each compound during this study was 0.10 to 100 μM. DMSO served” for “37° C. (MIC values were supported by spectrophotometric readings at OD600). DMSO served”, “1% v/v. All MIC values were obtained from a minimum of three independent experiments.” for “1% v/v.”

Molecule `CCCCCCCCCCCCCCCCn1c(C)[n+](Cc2ccccc2)c2ccccc21.[Br-]` [Compound 25] has an MIC ([1]; Table 1B) of 12.5 µM, an MIC ([1]; Table 3) of 12.5 µM and an MIC E. faecium VRE 700221 [2] of 1.56 µM. The “VRE MIC” value ([2]; Table 2A) was 1.56 µM, the “MIC VRE 700221” value [2] was 1.56 µM and the “MRSA-2 MBC” value [3] was 250 µM. For the same molecule, the “MRSA-2 MBEC” value [3] was 188 µM, the MIC ([4]; Table 1B) was 6.25 µM and the MIC ([4]; Table 3) was 6.25 µM. For the same molecule, the HC50 ([5]; Table 1A) was 10.4 µM, the “RBC HC50” value ([5]; Table 4, concentration required to lyse 50% of red blood cells) was 10.4 µM and the MIC S. epidermidis MRSE 35984 [6] was 3.13 µM. The MIC ([6]; Table 2A, read-out: MRSE 35984 MIC) was 3.13 µM, the “MIC MRSE 35984” value [6] was 3.13 µM and the MIC ([7]; Table 1B) was 12.5 µM. The MIC ([7]; Table 3) was 12.5 µM, the MIC ([8]; Table 1B) was 12.5 µM and the MIC ([8]; Table 3) was 12.5 µM. The MIC MRSA-2 ([9]; Table 1A) was 3.13 µM, the MIC ([9]; Table 1B) was 12.5 µM and the “MRSA-2 MIC” value ([9]; Table 2A) was 3.13 µM. For the same molecule, the MIC ([9]; Table 3) was 3.13 µM, the “MIC MRSA-2” value ([9]; Table 4) was 3.13 µM and the MIC PAO1 ([10]; Table 1A) was greater than 100 µM. For the same molecule, the “MIC PAO1” value ([10]; Table 4) was greater than 100 µM, the MIC ([11]; Table 1B) was 12.5 µM and the “MRSA BAA-1707 MIC” value ([11]; Table 2A) was 9.38^a μM. The MIC ([11]; Table 3) was 12.5 µM, the “MIC MRSA 1707” value [11] was 9.38a micromolar and the MIC ([12]; Table 1B) was 6.25 µM. It also gave an MIC ([12]; Table 3) of 6.25 µM, an MIC ([13]; Table 1B) of 3.13 µM and an MIC ([13]; Table 3) of 3.13 µM. The MIC ([14]; Table 1B) was 12.5 µM, the MIC ([14]; Table 3) was 12.5 µM and the “MIC A. baumannii 1794” value [15] was greater than 100. For the same molecule, the “MIC A. bau. 1794” value [15] was greater than 100 µM.
For `CCCCCCCCCCCCCCCCn1cc[n+](CCCC)c1C.[Br-]` [Compound 9], the “MIC SA-156” value ([1]; Table 1B) was 2.35^s μM, the “MIC SA-156” value ([1]; Table 3) was 2.35^a μM and the “MIC E. faecium VRE 700221” value [2] was 1.17^a. For the same molecule, the “MIC VRE 700221” value [2] was 1.17a micromolar, the “MIC SA-147” value ([4]; Table 1B) was 1.17^a μM and the “MIC SA-147” value ([4]; Table 3) was 1.17^a μM. For the same molecule, the “MIC S. epidermidis MRSE 35984” value [6] was 1.17^a, the “MIC MRSE 35984” value [6] was 1.17a micromolar and the “MIC MRSA BAA-44” value ([7]; Table 1B) was 2.35^a μM. The “MIC MRSA BAA-44” value ([7]; Table 3) was 2.35^a μM, the MIC ([8]; Table 1B) was 1.56 µM and the MIC ([8]; Table 3) was 1.56 µM. For the same molecule, the “MIC MRSA-2” value ([9]; Table 1A) was 2.35^a, the “MIC MRSA-2” value ([9]; Table 1B) was 2.35^a μM and the “MIC MRSA-2” value ([9]; Table 3) was 2.35^a μM. The “MIC MRSA-2” value ([9]; Table 4) was 2.35a micromolar, the MIC PAO1 ([10]; Table 1A) was greater than 100 µM and the “MIC PAO1” value ([10]; Table 4) was greater than 100 µM. For the same molecule, the “MIC MRSA BAA-1707” value ([11]; Table 1B) was 2.35^a μM, the “MIC MRSA BAA-1707” value ([11]; Table 3) was 2.35^a μM and the “MIC MRSA 1707” value [11] was 2.35a micromolar. The “MIC SA-138” value ([12]; Table 1B) was 1.17^a μM, the “MIC SA-138” value ([12]; Table 3) was 1.17^a μM and the MIC ([13]; Table 1B) was 1.56 µM. For the same molecule, the MIC ([13]; Table 3) was 1.56 µM, the “MIC S. aureus 29213” value ([14]; Table 1B) was 2.35^a μM and the “MIC S. aureus 29213” value ([14]; Table 3) was 2.35^a μM. The “MIC A. baumannii 1794” value [15] was 12.5 and the “MIC A. bau. 1794” value [15] was 12.5 µM.
